Laboratory results: the supplement of paper PMC10307832

Key:
Assay in all cases: relative viability (nuclei count vs DMSO), 5 days (fraction); higher = more cells survive
[1] = compound: CS(=O)(=O)c1ccc(-c2cnc(N)c(C(=O)Nc3ccccc3)n2)cc1 [VE-821] + C[C@@H](Oc1cc(-c2cnn(C3CCNCC3)c2)cnc1N)c1c(Cl)ccc(F)c1Cl [Crizotinib] (partner 1 µM)
How it was run: (§1)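 Relative viability is defined as nuclei in treated wells over nuclei in vehicle wells. Duplicate plates were run and medians reported. Lung cancer cell lines in 1536-well plates were dosed by pin tool one day after seeding, with one drug or with a fixed anchor-drug dose plus five library-drug doses (not always all listed) in √10 steps, and nuclei were counted after 5 days.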

[2] = compound: CS(=O)(=O)c1ccc(C(=O)Nc2ccc(Cl)c(-c3ccccn3)c2)c(Cl)c1 [Vismodegib] + CS(=O)(=O)N1CCN(Cc2cc3nc(-c4cccc5[nH]ncc45)nc(N4CCOCC4)c3s2)CC1 [Pictilisib] (partner 1 µM)
How it was run: as §1

[3] = compound: CS(=O)(=O)c1ccc(C(=O)Nc2ccc(Cl)c(-c3ccccn3)c2)c(Cl)c1 [Vismodegib] + O=C(c1cc(Cc2n[nH]c(=O)c3ccccc23)ccc1F)N1CCN(C(=O)C2CC2)CC1 [Olaparib] (partner 8 µM)
How it was run: as §1

[4] = compound: CS(=O)(=O)c1ccc(-c2cnc(N)c(C(=O)Nc3ccccc3)n2)cc1 [VE-821] + CC(=O)Nc1cccc(-n2c(=O)n(C3CC3)c(=O)c3c(Nc4ccc(I)cc4F)n(C)c(=O)c(C)c32)c1 [Trametinib] (partner 0.02 µM)
How it was run: as §1

Cell Line	relative viability ([1]; first compound 0.08 µM)	relative viability ([1]; first compound 0.253 µM)	relative viability ([1]; first compound 0.8 µM)	relative viability ([1]; first compound 2.53 µM)	relative viability ([1]; first compound 8 µM)	relative viability ([2]; first compound 0.08 µM)	relative viability ([2]; first compound 0.253 µM)	relative viability ([2]; first compound 0.8 µM)	relative viability ([2]; first compound 2.53 µM)	relative viability ([2]; first compound 8 µM)	relative viability ([3]; first compound 0.08 µM)	relative viability ([3]; first compound 0.253 µM)	relative viability ([3]; first compound 0.8 µM)	relative viability ([3]; first compound 2.53 µM)	relative viability ([3]; first compound 8 µM)	relative viability ([4]; first compound 0.08 µM)	relative viability ([4]; first compound 0.253 µM)	relative viability ([4]; first compound 0.8 µM)	relative viability ([4]; first compound 2.53 µM)	relative viability ([4]; first compound 8 µM)
A549	0.896	0.656	0.607	0.689	0.271	0.507	0.465	0.478	0.56	0.432	0.247	0.358	0.31	0.352	0.194	–	–	–	–	–
NCI-H650	0.969	0.969	0.675	0.889	0.642	0.799	0.733	0.643	0.945	0.947	0.385	0.385	0.396	0.316	0.387	0.99	1.01	1.11	1.02	1.08
NCI-H2087	1.21	0.891	1	0.902	0.93	0.673	0.702	0.843	0.874	0.732	0.582	0.594	0.607	0.594	0.508	0.218	0.275	0.177	0.222	0.234
EBC-1	0.181	0.189	0.155	0.179	0.202	0.38	0.433	0.386	0.426	0.433	0.662	0.674	0.751	0.69	0.74	–	–	–	–	–
NCI-H1648	–	–	–	–	–	–	–	–	–	–	0.781	0.767	0.46	0.645	0.872	0.581	–	0.394	0.729	0.575
NCI-H661	1.08	0.942	1.05	0.997	1.06	0.3	0.392	0.403	0.331	0.367	0.837	0.69	0.745	0.715	0.718	0.703	0.536	0.563	0.658	0.52
NCI-H596	0.977	1.03	0.904	1.12	0.934	0.385	0.404	0.391	0.391	0.397	0.749	0.488	0.653	0.706	0.844	0.78	0.802	0.752	0.798	0.594
IA-LM	1.04	0.618	0.875	1.14	0.616	0.363	0.354	0.277	0.281	0.379	0.841	0.853	0.892	0.773	0.941	–	–	–	–	–
Calu-6	0.97	0.844	0.795	0.684	0.466	0.934	0.915	0.886	0.918	0.859	0.589	0.558	0.562	0.434	0.587	–	–	–	–	–
NCI-H2342	–	–	–	–	–	–	–	–	–	–	0.402	0.421	0.418	0.52	0.406	0.804	0.907	0.8	0.849	0.492
NCI-H1299	0.986	0.967	0.919	0.903	0.786	0.761	0.815	0.72	0.787	0.96	0.913	0.964	0.967	0.935	0.951	–	–	–	–	–
ABC-1	1.18	1.1	0.904	0.777	0.58	0.602	0.841	0.712	0.757	0.772	0.76	0.788	0.725	1.01	1.09	–	–	–	–	–
NCI-H1703	1.04	0.578	0.688	0.336	0.248	0.223	0.216	0.302	0.254	0.249	0.495	0.42	0.543	0.349	0.44	–	–	–	–	–
NCI-H522	–	–	–	–	–	–	–	–	–	–	0.786	0.591	0.612	0.567	0.565	0.859	0.753	0.65	0.769	0.717
SW 900	–	–	–	–	–	–	–	–	–	–	0.743	0.866	0.784	–	0.803	0.675	0.792	0.687	0.706	0.403
NCI-H1395	–	–	–	–	–	0.573	0.593	0.491	0.631	0.752	0.467	0.553	0.494	0.468	0.491	1.11	0.988	0.913	1.02	0.763
NCI-H1793	–	–	–	–	–	–	0.413	0.411	0.367	0.325	–	0.907	1.11	0.917	0.884	0.605	0.408	–	0.526	0.618
